In US9820967B2 (priority 2014, dated 2017):
“And” between values parts separate entries of the source, which are not always exact repeats. Identical values can stand only once. “Also recorded” adds a separate entry of the source. Like-named read-outs stand apart in the source and are kept apart here.

Tests used:
[1] = tested on: efflux pump (EPI functionality); test: EPI functionality assays of authentic standard; assay type: cell-based, Escherichia coli
From the text: Moreover, this “halogenome” appeared to be dominated by brominated metabolites, with only some metabolites (<10) that were additionally chlorinated. […] Relative concentrations of halogenated compounds from clade IV appeared different even within members of the same species, indicative of intraspecies chemical diversity and further subclustering among isolates of the same species (A757, A754, A746, and B149), a phenomenon previously described for P. luteoviolacea strains. […] The presence of 2,3,4-tribromopyrrole was also determined (retention time 20.1 min, major ion m/z 301.7639), which was present in A757, A754, and A746, but not in B149. […]
(§1) To truly be considered an efflux pump inhibitor (EPI), the compound must increase the level of accumulation and decrease the level of extrusion of efflux pump substrates. The fluorescent DNA-binding dye Hoechst 33342 (H33342) a known substrate for RND pumps, is easily detected in the cell, can freely permeate the outer membrane, and can act as a reporter, all allowing for quantification of transport across living cells. Efflux-competent cells extrude H33342 and accumulate dye at a relatively slow rate, resulting in low levels of background fluorescence. Conversely, efflux-defective cells (e.g., presence of EPI) accumulate intracellular levels of H33342 at a higher rate, resulting in fluorescence retention. […]

[2] = tested on: E. coli mutant AG100A (ΔacrAB), lacking the pump; assay type: cell-based, Escherichia coli; details: transporter deficient
From the text: (§2) Upon entering the bacterial cell, H33342 becomes fluorescent once bound to the DNA minor groove.
as §1
(§3) For accumulation assays, in efflux-competent cells such as AG100, H33342 would be extruded resulting in low levels of background fluorescence, while the presence of a putative EPI would cause intracellular H33342 accumulation. […] Fluorescence values for wells containing media and compounds only were subtracted from those containing bacteria to control for any background fluorescence due to the presence of test compounds. […]

[3] = tested on: murine lymphocytic leukemia cells; details: cited from earlier work
fungi = details: Tsukamoto et al. (2001); cited from earlier work
[4] = biological target: wild-type E. coli AG100 expressing the AcrAB-TolC pump (Escherichia coli, UniProt P31224); assay type: cell-based
From the text: as §2, §1, §3

[5] = tested on: E. coli strains overexpressing efflux pumps (AG102, MG1655 ΔBC/pABM, MG1655 ΔBC/pXYM; AcrAB-TolC, MexAB-OprM, MexXY-OprM); assay type: cell-based, Escherichia coli
From the text: The checkerboard assay was used to determine whether 3,4-dibromopyrrole-2,5-dione potentiates the activity of two fluoroquinolones (ciprofloxacin (CIP) and levofloxacin (LEV)), an aminoglycoside (kanamycin (KAN)), a macrolide (erythromycin (ERY)), two β-lactams (oxacillin (OXA) and piperacillin (PIP)), tetracycline (TET), and chloramphenicol (CHL), known substrates for resistance nodulation cell division pump (RND) transporters, against test strains of multidrug resistant (MDR) E. coli. Interactions between 3,4-dibromopyrrole-2,5-dione and various antibiotics were classified based upon the fractional inhibitory concentration index (FICI), where a FIC of <0.5 is synergistic and indicative of the presence of an efflux pump inhibitor (EPI); 0.5-1 is indifferent; and >1 is antagonistic. […]
Bacterial susceptibility of extracts were tested in duplicate at 1 mg/mL and determined by rapid p-iodonitrotetrazolium chloride colorimetric assay in 96-well microtiter plates in a final volume of 200 μL as previously described (Kuete (2010), Antimicrob. Agents Chemother., 54, 1749-1752). […]
To assess the interaction between different classes of antibiotics and 3,4-dibromopyrrole-2,5-dione, standard checkerboard assays were performed in which the minimum inhibitory concentrations (MICs) of antibiotics were determined in the presence of different concentrations of 3,4-dibromopyrrole-2,5-dione. […]

[6] = biological target: H33342 efflux in E. coli AG100 (AcrAB-TolC) (Escherichia coli, UniProt P31224); test: Hoechst 33342 efflux assay, AG100; assay type: cell-based
From the text: To truly be considered an efflux pump inhibitor (EPI), the compound must increase the level of accumulation and decrease the level of extrusion of efflux pump substrates. The fluorescent DNA-binding dye Hoechst 33342 (H33342) a known substrate for RND pumps, is easily detected in the cell, can freely permeate the outer membrane, and can act as a reporter, all allowing for quantification of transport across living cells. Efflux-competent cells extrude H33342 and accumulate dye at a relatively slow rate, resulting in low levels of background fluorescence. Conversely, efflux-defective cells (e.g., presence of EPI) accumulate intracellular levels of H33342 at a higher rate, resulting in fluorescence retention. Wild-type E. coli K-12 strain, AG100, and AG100A, the ΔacrAB mutant, a generous gift from Dr. M. Viveiros (Universidad Nova de Lisboa, Portugal), were used in accumulation and efflux assays. […] All experiments were performed in duplicate. Heat-inactivated bacteria were used as a positive control to assess maximal dye accumulation.

Chain of H33342 efflux in E. coli AG100 (AcrAB-TolC) (P31224 whole entry): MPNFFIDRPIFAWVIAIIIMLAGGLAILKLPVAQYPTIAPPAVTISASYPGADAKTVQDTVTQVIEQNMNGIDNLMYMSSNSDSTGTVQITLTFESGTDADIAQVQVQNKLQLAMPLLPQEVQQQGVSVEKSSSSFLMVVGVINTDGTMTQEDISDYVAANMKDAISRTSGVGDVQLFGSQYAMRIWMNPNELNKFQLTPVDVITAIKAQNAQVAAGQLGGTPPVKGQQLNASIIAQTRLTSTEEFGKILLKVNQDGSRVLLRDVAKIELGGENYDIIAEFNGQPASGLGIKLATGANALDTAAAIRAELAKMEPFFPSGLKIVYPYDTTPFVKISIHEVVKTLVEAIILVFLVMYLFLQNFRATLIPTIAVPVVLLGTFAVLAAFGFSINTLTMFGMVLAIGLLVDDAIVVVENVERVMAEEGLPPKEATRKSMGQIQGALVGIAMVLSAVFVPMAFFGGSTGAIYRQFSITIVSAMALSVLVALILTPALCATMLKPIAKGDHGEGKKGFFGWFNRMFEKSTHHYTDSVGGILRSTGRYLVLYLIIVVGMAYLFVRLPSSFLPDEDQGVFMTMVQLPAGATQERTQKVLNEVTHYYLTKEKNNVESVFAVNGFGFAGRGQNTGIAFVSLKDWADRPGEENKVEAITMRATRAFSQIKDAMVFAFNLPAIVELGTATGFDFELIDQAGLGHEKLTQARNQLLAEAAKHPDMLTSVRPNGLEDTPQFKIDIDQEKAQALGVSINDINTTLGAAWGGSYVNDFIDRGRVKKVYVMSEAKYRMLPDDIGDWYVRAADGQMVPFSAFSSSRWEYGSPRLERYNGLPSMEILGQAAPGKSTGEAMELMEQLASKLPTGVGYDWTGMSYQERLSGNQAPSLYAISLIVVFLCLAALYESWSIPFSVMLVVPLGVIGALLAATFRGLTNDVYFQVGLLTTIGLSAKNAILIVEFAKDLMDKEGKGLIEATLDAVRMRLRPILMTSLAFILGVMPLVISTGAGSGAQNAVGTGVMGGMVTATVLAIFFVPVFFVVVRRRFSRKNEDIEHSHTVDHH
Chain of H33342 efflux in E. coli AG100 (AcrAB-TolC) (P0AE06 25-397, further chain): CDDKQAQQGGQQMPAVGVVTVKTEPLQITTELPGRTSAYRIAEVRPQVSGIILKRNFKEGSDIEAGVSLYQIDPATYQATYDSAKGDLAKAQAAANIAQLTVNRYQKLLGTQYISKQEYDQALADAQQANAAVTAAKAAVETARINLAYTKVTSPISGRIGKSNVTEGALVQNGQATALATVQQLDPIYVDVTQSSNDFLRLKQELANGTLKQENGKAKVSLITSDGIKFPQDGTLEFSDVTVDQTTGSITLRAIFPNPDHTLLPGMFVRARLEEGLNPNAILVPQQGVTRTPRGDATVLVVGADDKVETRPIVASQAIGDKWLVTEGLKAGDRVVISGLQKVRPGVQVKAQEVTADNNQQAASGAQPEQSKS
Chain of H33342 efflux in E. coli AG100 (AcrAB-TolC) (P02930 23-493, further chain): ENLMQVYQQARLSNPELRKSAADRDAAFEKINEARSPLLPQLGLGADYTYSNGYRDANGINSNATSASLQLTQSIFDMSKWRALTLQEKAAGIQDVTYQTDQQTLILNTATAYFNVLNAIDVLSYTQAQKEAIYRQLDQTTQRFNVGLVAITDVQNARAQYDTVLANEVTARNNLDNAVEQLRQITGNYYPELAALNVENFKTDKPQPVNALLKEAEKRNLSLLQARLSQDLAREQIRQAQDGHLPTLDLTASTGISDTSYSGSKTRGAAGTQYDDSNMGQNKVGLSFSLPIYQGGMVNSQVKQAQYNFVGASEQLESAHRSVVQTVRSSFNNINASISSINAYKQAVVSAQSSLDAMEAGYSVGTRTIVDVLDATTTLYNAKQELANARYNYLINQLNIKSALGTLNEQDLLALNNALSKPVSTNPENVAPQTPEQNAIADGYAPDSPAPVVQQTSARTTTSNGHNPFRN
Chain of wild-type E. coli AG100 expressing the AcrAB-TolC pump (P31224 whole entry): as the sequence (P31224 whole entry) above
Chain of wild-type E. coli AG100 expressing the AcrAB-TolC pump (P0AE06 25-397, further chain): as the sequence (P0AE06 25-397, further chain) above
Chain of wild-type E. coli AG100 expressing the AcrAB-TolC pump (P02930 23-493, further chain): as the sequence (P02930 23-493, further chain) above

Brc1[nH]c(Br)c(Br)c1Br [2,3,4,5-tetrabromopyrrole]
EPI activity of authentic standard [1]: not to be responsible for the EPI activity

O=C1NC(=O)C(Br)=C1Br [3,4-dibromopyrrole-2,5-dione]
effect on H33342 fluorescence (accumulation) [2]: no effect | effect on H33342 fluorescence (accumulation) ([2]; listed as 3,4-Dibromopyrrole-2,5-dione): not | cytotoxicity [3]: cytotoxicity | antifungal activity (fungi): modest antifungal activity | concentration equal to or more effective than PAβN (15.6 μg/mL) in causing H33342 accumulation [4]: ≥ 1 µg/mL | intracellular H33342 fluorescence (accumulation) [4]: dose-dependent increase; also recorded: increased | interaction by fractional inhibitory concentration index (FICI) ([5]; all antibiotics tested with the exception of piperacillin): synergistic (a FIC of <0.5 is synergistic and indicative of the presence of an efflux pump inhibitor (EPI)) | antibacterial activity of compound alone, concentration ([5]; all three E. coli strains overexpressing efflux pumps): > 100 µg/mL | IC50 [6]: 3.1 µM and 3 µM | most dilute concentration with significant (p<0.05) H33342 efflux inhibition vs solvent controls [6]: 0.06 µg/mL | inhibition of H33342 efflux vs control wells ([6]; 0.06-64 μg/mL, glucose, 37° C.): near-complete inhibition
